Columns and labels:
[1] = molecular target: ATP-binding cassette sub-family C member 2 (Homo sapiens, UniProt Q92887); assay: (§1) TP_TRANSPORTER: reporter gene activity in promoter constructs in HepG2 cells; format: functional, cell-based
[2] = molecular target: Multidrug resistance associated protein (Homo sapiens) (UniProt Q96QA9); assay: as §1; format: functional, cell-based
Sequence of Multidrug resistance associated protein (Homo sapiens) (Q96QA9 as listed by the source): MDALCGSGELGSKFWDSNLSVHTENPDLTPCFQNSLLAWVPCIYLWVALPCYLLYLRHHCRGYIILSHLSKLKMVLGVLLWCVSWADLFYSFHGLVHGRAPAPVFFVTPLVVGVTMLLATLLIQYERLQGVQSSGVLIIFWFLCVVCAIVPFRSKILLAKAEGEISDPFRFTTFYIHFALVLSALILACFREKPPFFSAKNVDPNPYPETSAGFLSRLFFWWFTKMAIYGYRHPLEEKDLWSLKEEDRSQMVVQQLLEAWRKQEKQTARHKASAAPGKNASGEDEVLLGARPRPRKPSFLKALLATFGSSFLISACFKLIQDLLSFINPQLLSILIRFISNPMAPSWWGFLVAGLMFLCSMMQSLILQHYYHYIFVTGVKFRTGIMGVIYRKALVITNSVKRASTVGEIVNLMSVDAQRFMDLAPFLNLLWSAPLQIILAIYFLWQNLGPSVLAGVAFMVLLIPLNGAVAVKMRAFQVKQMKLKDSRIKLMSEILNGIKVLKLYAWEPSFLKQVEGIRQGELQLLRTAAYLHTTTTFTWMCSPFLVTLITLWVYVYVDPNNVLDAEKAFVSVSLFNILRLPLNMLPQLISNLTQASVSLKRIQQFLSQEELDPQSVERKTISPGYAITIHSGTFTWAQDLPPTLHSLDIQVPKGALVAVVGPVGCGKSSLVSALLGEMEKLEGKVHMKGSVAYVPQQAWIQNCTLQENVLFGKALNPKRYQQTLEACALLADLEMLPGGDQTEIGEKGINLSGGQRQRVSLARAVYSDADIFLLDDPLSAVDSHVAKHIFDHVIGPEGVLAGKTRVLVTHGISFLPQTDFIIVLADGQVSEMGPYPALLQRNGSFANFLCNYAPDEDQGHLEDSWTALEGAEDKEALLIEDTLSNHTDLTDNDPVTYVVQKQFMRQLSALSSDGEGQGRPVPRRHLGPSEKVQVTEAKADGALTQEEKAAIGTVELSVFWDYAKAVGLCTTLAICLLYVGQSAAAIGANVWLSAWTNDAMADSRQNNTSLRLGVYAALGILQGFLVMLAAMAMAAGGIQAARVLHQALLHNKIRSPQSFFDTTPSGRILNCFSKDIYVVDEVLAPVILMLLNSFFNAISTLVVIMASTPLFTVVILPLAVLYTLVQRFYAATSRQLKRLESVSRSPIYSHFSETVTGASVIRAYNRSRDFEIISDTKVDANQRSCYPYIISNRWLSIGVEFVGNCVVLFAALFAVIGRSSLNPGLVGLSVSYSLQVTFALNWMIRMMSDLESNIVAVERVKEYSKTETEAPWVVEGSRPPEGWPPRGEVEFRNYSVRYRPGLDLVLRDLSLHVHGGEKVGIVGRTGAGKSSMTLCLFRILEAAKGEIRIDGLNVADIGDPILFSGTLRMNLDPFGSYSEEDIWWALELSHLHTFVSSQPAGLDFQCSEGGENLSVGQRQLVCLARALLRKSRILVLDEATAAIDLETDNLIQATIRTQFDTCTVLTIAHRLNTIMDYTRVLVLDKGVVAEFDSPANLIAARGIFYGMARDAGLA

Sequence of ATP-binding cassette sub-family C member 2 (Q92887 whole entry): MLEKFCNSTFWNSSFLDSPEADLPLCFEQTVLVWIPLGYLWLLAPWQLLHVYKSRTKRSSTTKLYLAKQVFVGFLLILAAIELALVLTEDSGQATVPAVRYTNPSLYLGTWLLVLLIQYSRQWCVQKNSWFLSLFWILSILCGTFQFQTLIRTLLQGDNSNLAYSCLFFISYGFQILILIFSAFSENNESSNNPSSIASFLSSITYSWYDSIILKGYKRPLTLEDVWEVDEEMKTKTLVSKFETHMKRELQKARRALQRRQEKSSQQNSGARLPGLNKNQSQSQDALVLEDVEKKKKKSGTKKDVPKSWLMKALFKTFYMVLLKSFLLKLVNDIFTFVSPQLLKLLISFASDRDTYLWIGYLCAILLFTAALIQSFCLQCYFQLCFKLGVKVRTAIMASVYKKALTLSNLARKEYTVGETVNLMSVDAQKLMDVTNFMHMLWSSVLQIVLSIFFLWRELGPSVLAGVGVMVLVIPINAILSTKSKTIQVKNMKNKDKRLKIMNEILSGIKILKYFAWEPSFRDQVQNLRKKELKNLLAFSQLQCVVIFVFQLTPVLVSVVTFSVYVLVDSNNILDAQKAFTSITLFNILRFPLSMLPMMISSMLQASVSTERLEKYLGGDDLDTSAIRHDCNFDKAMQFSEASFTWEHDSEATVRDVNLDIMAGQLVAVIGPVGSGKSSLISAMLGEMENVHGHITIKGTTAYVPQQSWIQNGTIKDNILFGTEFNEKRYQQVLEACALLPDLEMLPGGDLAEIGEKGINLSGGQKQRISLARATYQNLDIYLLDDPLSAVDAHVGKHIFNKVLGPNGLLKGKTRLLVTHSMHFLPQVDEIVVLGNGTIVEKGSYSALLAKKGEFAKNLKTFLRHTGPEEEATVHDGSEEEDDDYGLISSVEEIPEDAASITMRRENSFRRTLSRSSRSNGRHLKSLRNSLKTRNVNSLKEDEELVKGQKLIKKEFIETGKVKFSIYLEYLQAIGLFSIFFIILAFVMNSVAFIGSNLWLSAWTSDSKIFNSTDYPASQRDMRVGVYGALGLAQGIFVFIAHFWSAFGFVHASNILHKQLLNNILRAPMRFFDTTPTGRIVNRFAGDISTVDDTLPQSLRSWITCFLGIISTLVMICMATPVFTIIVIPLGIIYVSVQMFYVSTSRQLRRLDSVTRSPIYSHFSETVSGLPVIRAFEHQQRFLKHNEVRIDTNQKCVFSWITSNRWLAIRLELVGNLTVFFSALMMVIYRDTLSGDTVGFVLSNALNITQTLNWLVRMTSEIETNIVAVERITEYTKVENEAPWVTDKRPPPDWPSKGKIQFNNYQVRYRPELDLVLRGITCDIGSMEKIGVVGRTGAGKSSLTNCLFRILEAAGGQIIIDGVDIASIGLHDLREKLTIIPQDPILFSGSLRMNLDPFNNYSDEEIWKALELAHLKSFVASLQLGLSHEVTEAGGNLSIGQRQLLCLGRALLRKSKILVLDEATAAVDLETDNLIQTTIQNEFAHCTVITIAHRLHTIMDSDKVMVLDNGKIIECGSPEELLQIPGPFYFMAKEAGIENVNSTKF

Activity [2]	Structure (SMILES)	Activity [1]
–	COC(=O)Nc1nc2ccc(C(=O)c3cccs3)cc2[nH]1 [NOCODAZOLE]	inducer [+]
inducer [+]	COC(=O)Nc1nc2cc(C(=O)c3cccs3)ccc2[nH]1	–
